Experimental data as given in patent US9833497B2, “Human originated EGF domain proteins and use of the same” (CHENGDU SOURCEBIO LIMITED-LIABILITY COMPANY, priority 2013, dated 2017).

Assays:
Format in all cases: cell-based
Pseudomonas aeruginosa = experiment: MIC against Gram-negative bacteria: Pseudomonas aeruginosa; conditions: for MIC P. aeruginosa / MIC against P. aeruginosa / MIC (μg/mL) P. aeruginosa: 5×10^5 CFU/mL
In short: (§1)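 The recombinant human-originated EGF domain proteins were serially diluted two-fold against bacteria at 5×10^5 CFU/mL in LB medium. After shaken incubation at 37° C, the lowest concentration with no bacterial growth was recorded as the MIC.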

E. coli BL21 = experiment: MIC against Gram-negative bacteria: E. coli BL21; conditions: for MIC E. coli BL21 / MIC against E. coli BL21 / MIC (μg/mL) E. coli BL21: 5×10^5 CFU/mL
In short: as §1

Moraxella catarrhalis = experiment: MIC against Gram-negative bacteria: Moraxella catarrhalis; conditions: for MIC M. catarrhalis / MIC against M. catarrhalis / MIC (μg/mL) M. catarrhalis: 5×10^5 CFU/mL
In short: as §1

Citrobacter diversus = experiment: MIC against Gram-negative bacteria: Citrobacter diversus; conditions: for MIC C. diversus / MIC against C. diversus / MIC (μg/mL) C. diversus: 5×10^5 CFU/mL
In short: as §1

Klebsiella pneumonia = experiment: MIC against Gram-negative bacteria: Klebsiella pneumonia; conditions: for MIC K. pneumonia / MIC against K. pneumonia / MIC (μg/mL) K. pneumonia: 5×10^5 CFU/mL
In short: as §1

Enterobacter cloacae = experiment: MIC against Gram-negative bacteria: Enterobacter cloacae; conditions: for MIC E. cloacae / MIC against E. cloacae / MIC (μg/mL) E. cloacae: 5×10^5 CFU/mL
In short: as §1

Proteus mirabilis = experiment: MIC against Gram-negative bacteria: Proteus mirabilis; conditions: for MIC P. mirabilis / MIC against P. mirabilis / MIC (μg/mL) P. mirabilis: 5×10^5 CFU/mL
In short: as §1

Serratia marcescens = experiment: MIC against Gram-negative bacteria: Serratia marcescens; conditions: for MIC S. marcescens / MIC against S. marcescens / MIC (μg/mL) S. marcescens: 5×10^5 CFU/mL
In short: as §1

E. coli DH5α = experiment: Antibacterial activity: MIC and growth curve against E. coli DH5α in 96-well plate; conditions: minimal inhibitory concentration against E. coli DH5α; 96-well plate, 5×10^5 CFU/mL, 37° C., judged after 8 h
In short: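 Log-phase bacteria (OD600 ~0.5) resuspended in LB at 5×10^5 CFU/mL, exposed to recombinant protein at 50, 25, 12.5 μg/mL final in triplicate, 37 °C shaking at 175 rpm. OD600 read every 30 min; MIC is lowest concentration showing no growth.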

Aeromonas hydrophila = experiment: MIC against Gram-negative bacteria: Aeromonas hydrophila; conditions: for MIC A. hydrophila / MIC against A. hydrophila / MIC (μg/mL) A. hydrophila: 5×10^5 CFU/mL
In short: as §1

Proteus vulgaris = experiment: MIC against Gram-negative bacteria: Proteus vulgaris; conditions: for MIC P. vulgaris / MIC against P. vulgaris / MIC (μg/mL) P. vulgaris: 5×10^5 CFU/mL
In short: as §1

[1] = 10 h cultivation at 37° C., two-fold serial dilution
[2] = P. aeruginosa, 10 h cultivation at 37° C.
[3] = E. coli BL21, 10 h cultivation at 37° C.
[4] = M. catarrhalis, 10 h cultivation at 37° C.
[5] = C. diversus, 10 h cultivation at 37° C.
[6] = K. pneumonia, 10 h cultivation at 37° C.
[7] = E. cloacae, 10 h cultivation at 37° C.
[8] = P. mirabilis, 10 h cultivation at 37° C.
[9] = S. marcescens, 10 h cultivation at 37° C.
[10] = A. hydrophila, 10 h cultivation at 37° C.
[11] = P. vulgaris, 10 h cultivation at 37° C.
[12] = Pseudomonas aeruginosa, 96-well plate, 37° C., 10 h
[13] = E. coli BL21, 96-well plate, 37° C., 10 h
[14] = Moraxella catarrhalis, 96-well plate, 37° C., 10 h
[15] = Citrobacter diversus, 96-well plate, 37° C., 10 h
[16] = Klebsiella pneumonia, 96-well plate, 37° C., 10 h
[17] = Enterobacter cloacae, 96-well plate, 37° C., 10 h
[18] = Proteus mirabilis, 96-well plate, 37° C., 10 h
[19] = Serratia marcescens, 96-well plate, 37° C., 10 h
[20] = Aeromonas hydrophila, 96-well plate, 37° C., 10 h
[21] = Proteus vulgaris, 96-well plate, 37° C., 10 h

PRT1150 (HVPWCAHHLCRNNGTCISDNENLFCECPRLYSGK; listed as Homo sapiens)
50 µg/mL: MIC E. coli BL21 (E. coli BL21; [1]) | MIC K. pneumonia (Klebsiella pneumonia; [1]) | MIC A. hydrophila (Aeromonas hydrophila; [1]) | MIC P. vulgaris (Proteus vulgaris; [1])
12.5 µg/mL: MIC P. aeruginosa (Pseudomonas aeruginosa; [1]) | MIC M. catarrhalis (Moraxella catarrhalis; [1]) | MIC E. cloacae (Enterobacter cloacae; [1]) | MIC (E. coli DH5α)
25 µg/mL: MIC C. diversus (Citrobacter diversus; [1]) | MIC P. mirabilis (Proteus mirabilis; [1]) | MIC S. marcescens (Serratia marcescens; [1])

PRT491 (LDICSKNPCHNGGLCEEISQEVRGDVFPSYTCTCLKGYAGNHCE; listed as Homo sapiens)
50 µg/mL: MIC against P. aeruginosa (Pseudomonas aeruginosa; 96-well plate, 37° C., 10 h) | MIC against C. diversus (Citrobacter diversus; 96-well plate, 37° C., 10 h) | MIC against E. cloacae (Enterobacter cloacae; 96-well plate, 37° C., 10 h) | MIC against P. mirabilis (Proteus mirabilis; 96-well plate, 37° C., 10 h)
25 µg/mL: MIC against E. coli BL21 (E. coli BL21; 96-well plate, 37° C., 10 h) | MIC against P. vulgaris (Proteus vulgaris; 96-well plate, 37° C., 10 h)
12.5 µg/mL: MIC against M. catarrhalis (Moraxella catarrhalis; 96-well plate, 37° C., 10 h) | MIC against K. pneumonia (Klebsiella pneumonia; 96-well plate, 37° C., 10 h) | MIC against S. marcescens (Serratia marcescens; 96-well plate, 37° C., 10 h) | MIC (E. coli DH5α)
100 µg/mL: MIC against A. hydrophila (Aeromonas hydrophila; 96-well plate, 37° C., 10 h)

PRT846 (CNCSVVGSLNVNRCNQTTGQCECRPGYQGLHCETCKEGFYLNYTSGLCQP; listed as Homo sapiens)
12.5 µg/mL: MIC (μg/mL) E. coli BL21 (E. coli BL21; [3]) | MIC (μg/mL) M. catarrhalis (Moraxella catarrhalis; [4]) | MIC (μg/mL) C. diversus (Citrobacter diversus; [5]) | MIC (μg/mL) E. cloacae (Enterobacter cloacae; [7]) | MIC (μg/mL) P. mirabilis (Proteus mirabilis; [8]) | MIC (μg/mL) S. marcescens (Serratia marcescens; [9]) | MIC (μg/mL) A. hydrophila (Aeromonas hydrophila; [10]) | MIC (μg/mL) P. vulgaris (Proteus vulgaris; [11])
25 µg/mL: MIC (μg/mL) P. aeruginosa (Pseudomonas aeruginosa; [2]) | MIC (E. coli DH5α)
50 µg/mL: MIC (μg/mL) K. pneumonia (Klebsiella pneumonia; [6])

PRT1338 (EMDPCTGLTPGGCSRNAECIKTGTGTHTCVCQQGWTGNGRDCS; listed as Homo sapiens)
25 µg/mL: MIC against E. coli BL21 (E. coli BL21; [13]) | MIC against K. pneumonia (Klebsiella pneumonia; [16]) | MIC against S. marcescens (Serratia marcescens; [19])
50 µg/mL: MIC against E. cloacae (Enterobacter cloacae; [17]) | MIC (E. coli DH5α)
12.5 µg/mL: MIC against P. aeruginosa (Pseudomonas aeruginosa; [12]) | MIC against M. catarrhalis (Moraxella catarrhalis; [14]) | MIC against C. diversus (Citrobacter diversus; [15]) | MIC against P. mirabilis (Proteus mirabilis; [18]) | MIC against A. hydrophila (Aeromonas hydrophila; [20]) | MIC against P. vulgaris (Proteus vulgaris; [21])

PRT1003 (STDYCVSAPCFNGGTCVNRPGTFSCLCAMGFQGPRCE; listed as Homo sapiens)
50 µg/mL: MIC (Klebsiella pneumonia; [6]) | MIC (Proteus mirabilis; [8]) | MIC (E. coli DH5α)
25 µg/mL: MIC (Pseudomonas aeruginosa; [2]) | MIC (Moraxella catarrhalis; [4]) | MIC (Enterobacter cloacae; [7]) | MIC (Aeromonas hydrophila; [10]) | MIC (Proteus vulgaris; [11])
12.5 µg/mL: MIC (E. coli BL21; [3]) | MIC (Citrobacter diversus; [5]) | MIC (Serratia marcescens; [9])

PRT635 (DINECLEDKSVCQRGDCINTAGSYDCTCPDGFQLDDNKTCQ; listed as Homo sapiens)
12.5 µg/mL: MIC P. aeruginosa (Pseudomonas aeruginosa; 96-well plate, 37° C., 10 h) | MIC M. catarrhalis (Moraxella catarrhalis; 96-well plate, 37° C., 10 h) | MIC C. diversus (Citrobacter diversus; 96-well plate, 37° C., 10 h) | MIC E. cloacae (Enterobacter cloacae; 96-well plate, 37° C., 10 h) | MIC (E. coli DH5α) | MIC P. vulgaris (Proteus vulgaris; 96-well plate, 37° C., 10 h)
25 µg/mL: MIC E. coli BL21 (E. coli BL21; 96-well plate, 37° C., 10 h) | MIC K. pneumonia (Klebsiella pneumonia; 96-well plate, 37° C., 10 h) | MIC P. mirabilis (Proteus mirabilis; 96-well plate, 37° C., 10 h) | MIC S. marcescens (Serratia marcescens; 96-well plate, 37° C., 10 h) | MIC A. hydrophila (Aeromonas hydrophila; 96-well plate, 37° C., 10 h)

PRT1372 (GSRRCPGDCRGHGLCEDGVCVCDAGYSGEDC; listed as Homo sapiens)
25 µg/mL: MIC against E. coli BL21 (E. coli BL21; [3]) | MIC against M. catarrhalis (Moraxella catarrhalis; Moraxella catarrhalis, 10 h cultivation at 37° C.) | MIC against K. pneumonia (Klebsiella pneumonia; Klebsiella pneumonia, 10 h cultivation at 37° C.) | MIC against A. hydrophila (Aeromonas hydrophila; Aeromonas hydrophila, 10 h cultivation at 37° C.) | MIC against P. vulgaris (Proteus vulgaris; Proteus vulgaris, 10 h cultivation at 37° C.)
12.5 µg/mL: MIC against P. aeruginosa (Pseudomonas aeruginosa; Pseudomonas aeruginosa, 10 h cultivation at 37° C.) | MIC against C. diversus (Citrobacter diversus; Citrobacter diversus, 10 h cultivation at 37° C.) | MIC against E. cloacae (Enterobacter cloacae; Enterobacter cloacae, 10 h cultivation at 37° C.) | MIC against P. mirabilis (Proteus mirabilis; Proteus mirabilis, 10 h cultivation at 37° C.) | MIC against S. marcescens (Serratia marcescens; Serratia marcescens, 10 h cultivation at 37° C.) | MIC (E. coli DH5α)

PRT600 (CDCNPLGSLPFLTCDVDTGQCLCLSYVTGAHCEECTVGYWGLGNHLHGCSP; listed as Homo sapiens)
50 µg/mL: MIC M. catarrhalis (Moraxella catarrhalis; 96-well plate, 37° C., 10 h) | MIC K. pneumonia (Klebsiella pneumonia; 96-well plate, 37° C., 10 h)
25 µg/mL: MIC P. aeruginosa (Pseudomonas aeruginosa; 96-well plate, 37° C., 10 h) | MIC C. diversus (Citrobacter diversus; 96-well plate, 37° C., 10 h) | MIC E. cloacae (Enterobacter cloacae; 96-well plate, 37° C., 10 h) | MIC P. mirabilis (Proteus mirabilis; 96-well plate, 37° C., 10 h) | MIC S. marcescens (Serratia marcescens; 96-well plate, 37° C., 10 h) | MIC (E. coli DH5α)
12.5 µg/mL: MIC E. coli BL21 (E. coli BL21; 96-well plate, 37° C., 10 h) | MIC A. hydrophila (Aeromonas hydrophila; 96-well plate, 37° C., 10 h) | MIC P. vulgaris (Proteus vulgaris; 96-well plate, 37° C., 10 h)

PRT553 (CQCPGGRCDPHTGRCNCPPGLSGERCDTCSQQHQVPVPGGPVGHSIHCEV; listed as Homo sapiens)
50 µg/mL: MIC against E. coli BL21 (E. coli BL21; 96-well plate, 37° C., 10 h) | MIC against A. hydrophila (Aeromonas hydrophila; 96-well plate, 37° C., 10 h) | MIC against P. vulgaris (Proteus vulgaris; 96-well plate, 37° C., 10 h)
12.5 µg/mL: MIC against M. catarrhalis (Moraxella catarrhalis; 96-well plate, 37° C., 10 h) | MIC against K. pneumonia (Klebsiella pneumonia; 96-well plate, 37° C., 10 h)
25 µg/mL: MIC against P. aeruginosa (Pseudomonas aeruginosa; 96-well plate, 37° C., 10 h) | MIC against C. diversus (Citrobacter diversus; 96-well plate, 37° C., 10 h) | MIC against E. cloacae (Enterobacter cloacae; 96-well plate, 37° C., 10 h) | MIC against P. mirabilis (Proteus mirabilis; 96-well plate, 37° C., 10 h) | MIC against S. marcescens (Serratia marcescens; 96-well plate, 37° C., 10 h) | MIC (E. coli DH5α)

PRT133 (CRGHCSSYGKLCRNGGKCRERPIGFFCDCTFSAYTGPFCS; listed as Homo sapiens)
50 µg/mL: MIC (μg/mL) P. aeruginosa (Pseudomonas aeruginosa; [12]) | MIC (μg/mL) C. diversus (Citrobacter diversus; [15]) | MIC (E. coli DH5α) | MIC (μg/mL) P. vulgaris (Proteus vulgaris; [21])
25 µg/mL: MIC (μg/mL) M. catarrhalis (Moraxella catarrhalis; [14]) | MIC (μg/mL) K. pneumonia (Klebsiella pneumonia; [16]) | MIC (μg/mL) A. hydrophila (Aeromonas hydrophila; [20])
12.5 µg/mL: MIC (μg/mL) E. coli BL21 (E. coli BL21; [13]) | MIC (μg/mL) E. cloacae (Enterobacter cloacae; [17]) | MIC (μg/mL) P. mirabilis (Proteus mirabilis; [18]) | MIC (μg/mL) S. marcescens (Serratia marcescens; [19])
